Measurements: US10314307B2, “(S)-abscisic acid derivatives for improving plant stress tolerance” (Valent BioSciences Corporation, priority 2015, dated 2019)

Key:
Assay type in all cases: in vivo
[1] = tested on: Tobacco plants cv. Xanthi-nc; assay: Tobacco plants drought assay; details: for Percent of plants recovered 3 days after re-watering: re-watered after 18 days of water withdrawal
Procedure: Tobacco plants cv. Xanthi-nc were grown for six weeks at 25° C. and were size matched into groups of four. Each plant group was drench-treated with 10 mL of water containing 0.5% DMSO (control), 0.3 mg, 1.0 mg or 3.0 mg/plant 3′-methyl-(S)-abscisic acid, or 0.3 mg, 1.0 mg or 3.0 mg/plant S-ABA, respectively. The plants were kept in the greenhouse and not watered, simulating drought conditions. After 18 days of water withdrawal, the plants in all treatment groups wilted. At that point, all the plants were watered again. The number of plants that wilted during each day of water withdrawal and the number of plants that recovered following the re-watering were recorded.

crop plants = assay: Mitigation of drought and chilling stress on crop plants (summary statement)
[2] = tested on: Cucumber plants cv. ‘Straight Eight’; assay: Cucumber seedling chilling; parameters: key to New Growth Rating: 0 = No new growth; 1 = some new growth; 2 = new leaves; details: for New Growth Rating / Percent Leaf Area Affected: foliar spray 100 mg/liter, 300 ug/plant, 96 hours at 4° C., rated after 48 hours recovery
Procedure: In these studies, 3′-methyl-(S)-abscisic acid was compared with (S)-abscisic acid on cucumber seedlings for prevention of chilling damage. Cucumber plants cv. ‘Straight Eight’ were grown for two weeks at 25° C. and were size matched into groups of three plants. Each group was sprayed with water+0.05% non-ionic surfactant (control), 100 ppm 3′-methyl-(S)-abscisic acid and surfactant, or 100 ppm S-ABA and surfactant until wet, respectively. For the spray solutions, 3′-methyl-(S)-abscisic acid was dissolved in 0.5% by volume DMSO in water. Following the foliar treatment, plants were held for 48 hours at room temperature, then subjected to 4° C. for 96 hours, and then returned to 25° C. After the plants had been allowed to recover from the chilling treatments for 48 hours, the plants were rated for percent leaf area affected and new growth.

[3] = tested on: corn plants, commercial 111 day, central corn belt variety; assay: Corn plant leaf rolling assay and shoot fresh weight under drought; details: for Shoot Fresh Weight, 15 DAS: 12 days drought then 3 days watering; for Average # of Rolled Leaves/Plant, 5 DAS / Average # of Rolled Leaves/Plant, 6 DAS / Average # of Rolled Leaves/Plant, 8 DAS: water withheld; for Average # of Rolled Leaves/Plant, 5 DAS: 5 days after spraying; for Average # of Rolled Leaves/Plant, 6 DAS: 6 days after spraying; for Average # of Rolled Leaves/Plant, 8 DAS: 8 days after spraying
Procedure: In this greenhouse experiment, foliar spray treatments containing 3′-methyl-(S)-abscisic acid, 3′-propargyl-(S)-abscisic acid or (S)-abscisic acid were applied to corn plants to evaluate their effect on gas exchange, as measured through stomatal conductance. Corn plants of a commercial, 111 day, central corn belt variety were grown in the greenhouse under optimal conditions for five weeks and were size-matched into ten groups of five plants. Using an aerosol sprayer, each group was sprayed to drip (25 milliliters per plant) with solutions containing a non-ionic surfactant (0.125%, v/v) and water (control), 2.5 mg, 7.5 mg or 25 mg/plant 3′-methyl-(S)-abscisic acid, or 2.5 mg, 7.5 mg or 25 mg/plant 3′-propargyl-(S)-abscisic acid, or 7.5 mg, 25 mg or 75 mg/plant (5)-ABA, respectively. After spraying, plants were returned to the greenhouse for the duration of the experiment. Stomatal conductance was measured using an AP4 porometer (Delta T Devices, Cambridge, UK) and the conductance for each plant was recorded at approximately the same time of day (˜10 AM) prior to treatment application as well as 1, 2, 5, 6, 9 and 16 days post-spraying. This study was conducted as described above with the following the exceptions. After spraying, plants were put back in the greenhouse and water was withheld for twelve days, simulating drought stress. The plants were then watered to saturation for three consecutive days before the plant shoots were cut at the soil surface and subsequently weighed in grams (fresh weight). Leaf-rolling data and fresh weight data were recorded for each plant following treatment application at the times specified below in Table 6.

Row | Structure (SMILES) | Percent of non-wilted plans on days after drench treatment and drought initiation, Day 8 ([1]; 0.3 mg/plant drench) | Percent of non-wilted plans on days after drench treatment and drought initiation, Day 10 ([1]; 0.3 mg/plant drench) | Percent of non-wilted plans on days after drench treatment and drought initiation, Day 12 ([1]; 0.3 mg/plant drench) | Percent of non-wilted plans on days after drench treatment and drought initiation, Day 14 ([1]; 0.3 mg/plant drench) | Percent of non-wilted plans on days after drench treatment and drought initiation, Day 16 ([1]; 0.3 mg/plant drench) | Percent of non-wilted plans on days after drench treatment and drought initiation, Day 18 ([1]; 0.3 mg/plant drench) | Percent of plants recovered 3 days after re-watering ([1]; 0.3 mg/plant drench) | Percent of non-wilted plans on days after drench treatment and drought initiation, Day 8 ([1]; 1 mg/plant drench) | Percent of non-wilted plans on days after drench treatment and drought initiation, Day 10 ([1]; 1 mg/plant drench) | Percent of non-wilted plans on days after drench treatment and drought initiation, Day 12 ([1]; 1 mg/plant drench) | Percent of non-wilted plans on days after drench treatment and drought initiation, Day 14 ([1]; 1 mg/plant drench) | Percent of non-wilted plans on days after drench treatment and drought initiation, Day 16 ([1]; 1 mg/plant drench) | Percent of non-wilted plans on days after drench treatment and drought initiation, Day 18 ([1]; 1 mg/plant drench) | Shoot Fresh Weight, 15 DAS ([3]; 300 ppm or 7.5 mg/plant) | Average # of Rolled Leaves/Plant, 5 DAS ([3]; 300 ppm or 7.5 mg/plant) | Average # of Rolled Leaves/Plant, 6 DAS ([3]; 300 ppm or 7.5 mg/plant) | Average # of Rolled Leaves/Plant, 8 DAS ([3]; 300 ppm or 7.5 mg/plant) | Shoot Fresh Weight, 15 DAS ([3]; 1000 ppm or 25 mg/plant) | Average # of Rolled Leaves/Plant, 6 DAS ([3]; 1000 ppm or 25 mg/plant) | Average # of Rolled Leaves/Plant, 8 DAS ([3]; 1000 ppm or 25 mg/plant) | also measured
1 | CC1=C(C)[C@](O)(/C=C/C(C)=C\C(=O)O)C(C)(C)CC1=O [3′-methyl-(S)-ABA, (2Z,4E)-5-((S)-1-hydroxy-2,3,6,6-tetramethyl-4-oxocyclohex-2-en-1-yl)-3-methylpenta-2,4-dienoic acid] | 100% | 100% | 83% | 33% | 0% | 0% | 0% | 100% | 100% | 100% | 83% | 67% | 0% | 276.6 grams | 2.0 | 3.6 | 8.4 | 373.4 grams | 2.2 | 7.2 | Percent of plants recovered 3 days after re-watering ([1]; 1 mg/plant drench): 33%; Percent of non-wilted plans on days after drench treatment and drought initiation, Day 8 ([1]; 3 mg/plant drench): 100%; Percent of non-wilted plans on days after drench treatment and drought initiation, Day 10 ([1]; 3 mg/plant drench): 100%; Percent of non-wilted plans on days after drench treatment and drought initiation, Day 12 ([1]; 3 mg/plant drench): 100%; Percent of non-wilted plans on days after drench treatment and drought initiation, Day 14 ([1]; 3 mg/plant drench): 100%; Percent of non-wilted plans on days after drench treatment and drought initiation, Day 16 ([1]; 3 mg/plant drench): 83%; Percent of non-wilted plans on days after drench treatment and drought initiation, Day 18 ([1]; 3 mg/plant drench): 0%; Percent of plants recovered 3 days after re-watering ([1]; 3 mg/plant drench): 83%; Percent of plants recovered 3 days after re-watering ([1]; 3 mg/plant drench, listed as 3′-methyl-(S)-abscisic acid): 83%; Drought tolerance compared to the untreated control or the highest amount (3.0 mg) of S-ABA ([1]; lowest amount (0.3 mg)): superior drought tolerance; Effectiveness relative to S-ABA when applied to crop plants to mitigate drought and chilling stress (crop plants): from about two to about ten times as effective as S-ABA; Mitigating chilling damage compared with S-ABA ([2]; 100 ppm foliar spray, chilling at 4° C.): more effective than S-ABA; New Growth Rating [2]: 2; Percent Leaf Area Affected [2]: 16.67%; Shoot Fresh Weight, 15 DAS ([3]; 100 ppm or 2.5 mg/plant): 256.0 grams; Average # of Rolled Leaves/Plant, 5 DAS ([3]; 100 ppm or 2.5 mg/plant): 1.6; Average # of Rolled Leaves/Plant, 6 DAS ([3]; 100 ppm or 2.5 mg/plant): 4.6; Average # of Rolled Leaves/Plant, 8 DAS ([3]; 100 ppm or 2.5 mg/plant): 9.0
2 | C#CCC1=C(C)[C@](O)(/C=C/C(C)=C\C(=O)O)C(C)(C)CC1=O [3′-propargyl-(S)-ABA, (2Z,4E)-5-((S)-1-hydroxy-2,6,6-trimethyl-4-oxo-3-(prop-2-yn-1-yl)cyclohex-2-en-1-yl)-3-methylpenta-2,4-dienoic acid] | – | – | – | – | – | – | – | – | – | – | – | – | – | 313.1 grams | 1.8 | 3.6 | 8.0 | 334.4 grams | 0.0 | 7.0 | Shoot Fresh Weight, 15 DAS ([3]; 100 ppm or 2.5 mg/plant): 263.9 grams; Average # of Rolled Leaves/Plant, 5 DAS ([3]; 100 ppm or 2.5 mg/plant): 1.8; Average # of Rolled Leaves/Plant, 6 DAS ([3]; 100 ppm or 2.5 mg/plant): 3.8; Average # of Rolled Leaves/Plant, 8 DAS ([3]; 100 ppm or 2.5 mg/plant): 7.2; Average # of Rolled Leaves/Plant, 5 DAS ([3]; 1000 ppm or 25 mg/plant): 0.0
3 | CC1=CC(=O)CC(C)(C)[C@@]1(O)/C=C/C(C)=C/C(=O)O [S-ABA, (S)-abscisic acid] | 100% | 100% | 17% | 0% | 0% | 0% | 0% | 100% | 100% | 50% | 0% | 0% | 0% | 258.9 grams | 2.8 | 2.6 | 8.4 | 282.5 grams | 3.0 | 8.8 | Percent of plants recovered 3 days after re-watering ([1]; 1 mg/plant drench): 0%; Percent of non-wilted plans on days after drench treatment and drought initiation, Day 8 ([1]; 3 mg/plant drench): 100%; Percent of non-wilted plans on days after drench treatment and drought initiation, Day 10 ([1]; 3 mg/plant drench): 100%; Percent of non-wilted plans on days after drench treatment and drought initiation, Day 12 ([1]; 3 mg/plant drench): 67%; Percent of non-wilted plans on days after drench treatment and drought initiation, Day 14 ([1]; 3 mg/plant drench): 0%; Percent of non-wilted plans on days after drench treatment and drought initiation, Day 16 ([1]; 3 mg/plant drench): 0%; Percent of non-wilted plans on days after drench treatment and drought initiation, Day 18 ([1]; 3 mg/plant drench): 0%; Percent of plants recovered 3 days after re-watering ([1]; 3 mg/plant drench): 0%; Plants recovered once they were watered ([1]; all S-ABA doses (0.3, 1.0, 3.0 mg/plant)): none; New Growth Rating [2]: 1; Percent Leaf Area Affected [2]: 33.33%; Average # of Rolled Leaves/Plant, 5 DAS ([3]; 1000 ppm or 25 mg/plant): 1.2; Shoot Fresh Weight, 15 DAS ([3]; 3000 ppm or 75 mg/plant): 301.7 grams; Average # of Rolled Leaves/Plant, 5 DAS ([3]; 3000 ppm or 75 mg/plant): 0.0; Average # of Rolled Leaves/Plant, 6 DAS ([3]; 3000 ppm or 75 mg/plant): 0.2; Average # of Rolled Leaves/Plant, 8 DAS ([3]; 3000 ppm or 75 mg/plant): 7.2; Effectiveness at reducing leaf rolling ([3]; S-ABA 75 mg/plant compared with 25 mg of the derivatives): as effective at reducing leaf rolling as 25 mg of 3′-methyl-(S)-abscisic acid, or 3′-propargyl-(S)-abscisic acid
